Laboratory results reported in US8901118B2, “Compounds and methods for kinase modulation, and indications therefor” (Plexxikon Inc., priority 2010, dated 2014).

Key:
CYP2D6 = CYP2D6 (Homo sapiens, UniProt P10635); assay: CYP2D6 inhibition (fluorescent substrate AMMC); type: in vitro ADME; details: read-out: Cyp IC50 2D6
Outline: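 Compounds, serially diluted 1:1 over 10 points in NADPH-regenerating cofactor mix with 5% acetonitrile, were preincubated 10 min at 37 °C, then run with enzyme and substrate at 37 °C (CYP1A2 15 min; CYP2C9 45 min; CYP2C19, CYP2D6 30 min). Product fluorescence gave IC50s.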

BCR-NTRK1 BaF3 cells = biological target: T1, BCR-NTRK1 BaF3 cells (Homo sapiens, UniProt P04629); assay: BaF3 BCR-NTRK1 cell proliferation assay (ATPlite); type: cell-based; details: read-out: Inhibition of Cell Proliferation IC50, BCR/BaF3 TrkA
T1 construct: fused on or other part: P11274 (Breakpoint cluster region protein)
Outline: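 ATP-based luminescence (ATPlite), read after 10 min at room temperature, served as a proxy for cell number, and IC50 was fitted against compound concentration. Before that, cells were treated for 3 days with an 8-point 1:3 dilution series starting at 10 μM. BaF3 cells were plated at 10,000/well without IL-3, and MV-4-11 cells at 25,000/well.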

T1 sequence (P04629 510-781): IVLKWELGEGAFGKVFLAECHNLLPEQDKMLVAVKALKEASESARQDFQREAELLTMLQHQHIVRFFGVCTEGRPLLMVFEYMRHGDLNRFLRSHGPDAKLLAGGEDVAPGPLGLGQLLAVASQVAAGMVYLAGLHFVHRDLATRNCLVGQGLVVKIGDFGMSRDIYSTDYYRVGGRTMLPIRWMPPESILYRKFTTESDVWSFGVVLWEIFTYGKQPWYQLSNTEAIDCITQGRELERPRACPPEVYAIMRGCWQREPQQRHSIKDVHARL
CYP2D6, sequence (P10635 whole entry): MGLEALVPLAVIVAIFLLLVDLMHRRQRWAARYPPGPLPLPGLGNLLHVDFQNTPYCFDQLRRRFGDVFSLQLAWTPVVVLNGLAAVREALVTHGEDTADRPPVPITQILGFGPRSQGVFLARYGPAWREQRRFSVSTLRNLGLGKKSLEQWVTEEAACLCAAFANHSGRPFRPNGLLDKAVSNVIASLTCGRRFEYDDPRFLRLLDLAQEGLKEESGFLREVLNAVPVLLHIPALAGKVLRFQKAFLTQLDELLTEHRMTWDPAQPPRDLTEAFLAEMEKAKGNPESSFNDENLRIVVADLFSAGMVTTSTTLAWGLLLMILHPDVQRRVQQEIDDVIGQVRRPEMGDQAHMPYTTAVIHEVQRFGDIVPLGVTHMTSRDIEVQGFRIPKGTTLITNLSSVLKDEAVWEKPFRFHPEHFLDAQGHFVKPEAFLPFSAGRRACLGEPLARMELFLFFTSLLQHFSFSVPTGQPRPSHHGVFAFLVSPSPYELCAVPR

Row | IC50 (CYP2D6) | IC50 (BCR-NTRK1 BaF3 cells) | SMILES
1 | – | < 10 nM | Cc1cnc2[nH]cc(Cc3cnc(Nc4ccc(C(C)(C)C)cc4)nc3)c2c1 [Compound P-3030, (4-tert-Butyl-phenyl)-[5-(5-methyl-1H-pyrrolo[2,3-b]pyridin-3-ylmethyl)-pyrimidin-2-yl]-amine amine]
2 | – | < 1000 nM | COc1ccc(Nc2ncc(Cc3c[nH]c4ncc(C)cc34)cn2)cc1 [Compound P-3021, (4-Methoxy-phenyl)-[5-(5-methyl-1H-pyrrolo[2,3-b]pyridin-3-ylmethyl)-pyrimidin-2-yl]-amine]
3 | – | < 1000 nM | CCCOc1ccc(Nc2ncc(Cc3c[nH]c4ncc(C)cc34)cn2)cc1 [Compound P-3024, [5-(5-Methyl-1H-pyrrolo[2,3-b]pyridin-3-ylmethyl)-pyrimidin-2-yl]-(4-propoxy-phenyl)-amine]
4 | – | < 100 nM | Cc1cnc2[nH]cc(Cc3cnc(Nc4ccc(S(C)(=O)=O)cc4)nc3)c2c1 [Compound P-3034, (4-Methanesulfonyl-phenyl)-[5-(5-methyl-1H-pyrrolo[2,3-b]pyridin-3-ylmethyl)-pyrimidin-2-yl]-amine]
5 | – | > 10000 nM | Fc1cccc(Nc2ncc(Cc3c[nH]c4ncc(Cl)cc34)cn2)c1 [Compound P-3017, [5-(5-Chloro-1H-pyrrolo[2,3-b]pyridin-3-ylmethyl)-pyrimidin-2-yl]-(3-fluoro-phenyl)-amine]
6 | – | > 1000 nM | Cc1cnc2[nH]cc(Cc3cnc(Nc4cc(C(C)(C)C)n[nH]4)nc3)c2c1 [Compound P-3029, (5-tert-Butyl-2H-pyrazol-3-yl)-[5-(5-methyl-1H-pyrrolo[2,3-b]pyridin-3-ylmethyl)-pyrimidin-2-yl]-amine]
7 | – | < 100 nM | Cc1cnc2[nH]cc(Cc3cnc(Nc4cc(-c5ccc(F)cc5)n[nH]4)nc3)c2c1 [Compound P-3028, [5-(4-Fluoro-phenyl)-2H-pyrazol-3-yl]-[5-(5-methyl-1H-pyrrolo[2,3-b]pyridin-3-ylmethyl)-pyrimidin-2-yl]-amine]
8 | – | < 100 nM | CSc1ccc(Nc2ncc(Cc3c[nH]c4ncc(C)cc34)cn2)cc1 [Compound P-3033, [5-(5-Methyl-1H-pyrrolo[2,3-b]pyridin-3-ylmethyl)-pyrimidin-2-yl]-(4-methylsulfanyl-phenyl)-amine]
9 | – | > 1000 nM | Cc1cnc2[nH]cc(Cc3cnc(Nc4cc(C(F)(F)F)n[nH]4)nc3)c2c1 [Compound P-3037, [5-(5-Methyl-1H-pyrrolo[2,3-b]pyridin-3-ylmethyl)-pyrimidin-2-yl]-(5-trifluoromethyl-2H-pyrazol-3-yl)-amine]
10 | – | < 10 nM | CCc1ccc(Nc2ncc(Cc3c[nH]c4ncc(C)cc34)cn2)cc1 [Compound P-3025, (4-Ethyl-phenyl)-[5-(5-methyl-1H-pyrrolo[2,3-b]pyridin-3-ylmethyl)-pyrimidin-2-yl]-amine]
11 | – | < 10 nM | Cc1cnc2[nH]cc(Cc3cnc(Nc4ccc(C(O)(C(F)(F)F)C(F)(F)F)cc4)nc3)c2c1 [Compound P-3031, 1,1,1,3,3,3-Hexafluoro-2-{4-[5-(5-methyl-1H-pyrrolo[2,3-b]pyridin-3-ylmethyl)-pyrimidin-2-ylamino]-phenyl}-propan-2-ol]
12 | – | < 100 nM | CCOc1ccc(Nc2ncc(Cc3c[nH]c4ncc(C)cc34)cn2)cc1 [Compound P-3026, (4-Ethoxy-phenyl)-[5-(5-methyl-1H-pyrrolo[2,3-b]pyridin-3-ylmethyl)-pyrimidin-2-yl]-amine]
13 | – | > 10000 nM | COc1ccccc1Nc1ncc(Cc2c[nH]c3ncc(Cl)cc23)cn1 [Compound P-3016, [5-(5-Chloro-1H-pyrrolo[2,3-b]pyridin-3-ylmethyl)-pyrimidin-2-yl]-(2-methoxy-phenyl)-amine]
14 | – | < 1000 nM | Cc1cnc2[nH]cc(Cc3cnc(Nc4cc(C5CC5)n[nH]4)nc3)c2c1 [Compound P-3032, (5-Cyclopropyl-2H-pyrazol-3-yl)-[5-(5-methyl-1H-pyrrolo[2,3-b]pyridin-3-ylmethyl)-pyrimidin-2-yl]-amine]

The remaining lines, values behind:

Row | SMILES | IC50 (CYP2D6) | IC50 (BCR-NTRK1 BaF3 cells)
15 | Clc1cnc2[nH]cc(Cc3cnc(NC4CCCCC4)nc3)c2c1 [Compound P-3001, [5-(5-chloro-1H-pyrrolo[2,3-b]pyridin-3-ylmethyl)-pyrimidin-2-yl]-cyclohexyl-amine] | > 10000 nM | > 10000 nM
16 | COc1ccc(Nc2ccc(C(=O)c3c[nH]c4ncnc(C5CC5)c34)c(F)n2)cn1 [Compound P-4022, (4-cyclopropyl-7H-pyrrolo[2,3-d]pyrimidin-5-yl)-[2-fluoro-6-(6-methoxy-pyridin-3-ylamino)-pyridin-3-yl]-methanone] | 5000 to 10000 nM | < 10 nM
17 | CCOc1ncnc2[nH]cc(Cc3ccc(Nc4ccc(Br)nc4)nc3F)c12 [Compound P-4020, (6-Bromo-pyridin-3-yl)-[5-(4-ethoxy-7H-pyrrolo[2,3-d]pyrimidin-5-ylmethyl)-6-fluoro-pyridin-2-yl]-amine] | – | < 1000 nM
18 | Cc1ccc(Nc2ccc(Cc3c[nH]c4ncc(Cl)cc34)c(F)n2)cn1 [Compound P-3042, [5-(5-Chloro-1H-pyrrolo[2,3-b]pyridin-3-ylmethyl)-6-fluoro-pyridin-2-yl]-(6-methyl-pyridin-3-yl)-amine] | – | < 1000 nM
19 | Cc1ccc(Nc2ccc(C(=O)c3c[nH]c4ncnc(C5CC5)c34)c(F)n2)cn1 [Compound P-4031, (4-Cyclopropyl-7H-pyrrolo[2,3-d]pyrimidin-5-yl)-[2-fluoro-6-(6-methyl-pyridin-3-ylamino)-pyridin-3-yl]-methanone] | < 5000 nM | < 100 nM
20 | Cc1cnc2[nH]cc(Cc3ccc(Nc4ccc(C5CC5)nc4)nc3F)c2c1 [Compound P-3050, (6-Cyclopropyl-pyridin-3-yl)-[6-fluoro-5-(5-methyl-1H-pyrrolo[2,3-b]pyridin-3-ylmethyl)-pyridin-2-yl]-amine] | > 10000 nM | < 100 nM
21 | Cc1ccc(Nc2ccc(C(=O)c3c[nH]c4ncc(Cl)cc34)c(F)n2)cn1 [Compound P-3044, (5-Chloro-1H-pyrrolo[2,3-b]pyridin-3-yl)-[2-fluoro-6-(6-methyl-pyridin-3-ylamino)-pyridin-3-yl]-methanone] | > 10000 nM | < 1000 nM
22 | COc1ccc(Nc2ccc(C(=O)c3c[nH]c4ncc(C)cc34)c(F)n2)cn1 [Compound P-3040, [2-Fluoro-6-(6-methoxy-pyridin-3-ylamino)-pyridin-3-yl]-(5-methyl-1H-pyrrolo[2,3-b]pyridin-3-yl)-methanone] | > 10000 nM | < 100 nM
23 | CCc1ccc(Nc2ccc(C(=O)c3c[nH]c4ncnc(C5CC5)c34)c(F)n2)cn1 [Compound P-4029, (4-Cyclopropyl-7H-pyrrolo[2,3-d]pyrimidin-5-yl)-[6-(6-ethyl-pyridin-3-ylamino)-2-fluoro-pyridin-3-yl]-methanone] | > 10000 nM | < 10 nM
24 | Clc1cnc2[nH]cc(Cc3cnc(NC4CCCCCC4)nc3)c2c1 [Compound P-3006, [5-(5-Chloro-1H-pyrrolo[2,3-b]pyridin-3-ylmethyl)-pyrimidin-2-yl]-cycloheptyl-amine] | > 10000 nM | < 20000 nM
25 | CCn1cc(Nc2ccc(Cc3c[nH]c4ncnc(C5CC5)c34)c(F)n2)cn1 [Compound P-4036, [5-(4-Cyclopropyl-7H-pyrrolo[2,3-d]pyrimidin-5-ylmethyl)-6-fluoro-pyridin-2-yl]-(1-ethyl-1H-pyrazol-4-yl)-amine] | > 10000 nM | < 1000 nM
26 | CCOc1ccc(Nc2ccc(Cc3c[nH]c4ncnc(C5CC5)c34)c(F)n2)cn1 [Compound P-4026, [5-(4-Cyclopropyl-7H-pyrrolo[2,3-d]pyrimidin-5-ylmethyl)-6-fluoro-pyridin-2-yl]-(6-ethoxy-pyridin-3-yl)-amine] | – | < 100 nM
27 | CCOc1ncnc2[nH]cc(Cc3ccc(Nc4cccnc4)nc3F)c12 [Compound P-4021, [5-(4-Ethoxy-7H-pyrrolo[2,3-d]pyrimidin-5-ylmethyl)-6-fluoro-pyridin-2-yl]-pyridin-3-yl-amine] | – | > 1000 nM
28 | CCOc1ccc(Nc2ccc(C(=O)c3c[nH]c4ncnc(C)c34)c(F)n2)cn1 [Compound P-4032, [6-(6-Ethoxy-pyridin-3-ylamino)-2-fluoro-pyridin-3-yl]-(4-methyl-7H-pyrrolo[2,3-d]pyrimidin-5-yl)-methanone] | – | < 100 nM
29 | CCOc1ccc(Nc2ccc(C(=O)c3c[nH]c4ncnc(C5CC5)c34)c(F)n2)cn1 [Compound P-4027, (4-Cyclopropyl-7H-pyrrolo[2,3-d]pyrimidin-5-yl)-[6-(6-ethoxy-pyridin-3-ylamino)-2-fluoro-pyridin-3-yl]-methanone] | – | < 100 nM
30 | Clc1cnc2[nH]cc(Cc3cnc(NC4CC4)nc3)c2c1 [Compound P-3005, [5-(5-Chloro-1H-pyrrolo[2,3-b]pyridin-3-ylmethyl)-pyrimidin-2-yl]-cyclopropyl-amine] | – | > 10000 nM
31 | CCOc1ccc(Nc2ccc(C(=O)c3c[nH]c4ncc(C)cc34)c(F)n2)cn1 [Compound P-3045, [6-(6-ethoxy-pyridin-3-ylamino)-2-fluoro-pyridin-3-yl]-(5-methyl-1H-pyrrolo[2,3-b]pyridin-3-yl)-methanone] | – | < 100 nM
32 | Cc1cncc(Nc2ccc(C(=O)c3c[nH]c4ncnc(C5CC5)c34)c(F)n2)c1 [Compound P-4039, (4-Cyclopropyl-7H-pyrrolo[2,3-d]pyrimidin-5-yl)-[2-fluoro-6-(5-methyl-pyridin-3-ylamino)-pyridin-3-yl]-methanone] | – | < 100 nM
33 | Cc1cncc(Nc2ccc(Cc3c[nH]c4ncnc(C5CC5)c34)c(F)n2)c1 [Compound P-4038, [5-(4-Cyclopropyl-7H-pyrrolo[2,3-d]pyrimidin-5-ylmethyl)-6-fluoro-pyridin-2-yl]-(5-methyl-pyridin-3-yl)-amine] | – | < 1000 nM
